Results as given in patent US20230278972A1, “SUBSTITUTED HALOALKYL SULFONANILIDE HERBICIDES” (FMC Corporation, priority 2020, published 2023).

Experiments:
Type in all cases: in vivo
[1] = tested on: barnyardgrass (Echinochloa crus-galli); experiment: Test A preemergence, barnyardgrass; conditions: Preemergence; for Plant response rating, Barnyardgrass: 0 to 100 scale (0 no effect, 100 complete control); for Barnyardgrass plant response rating: 500 g ai/ha, visual injury on 0 to 100 scale (0 no effect, 100 complete control), approximately 10 days
Method in brief: (§1)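 Preemergence: seeded pots of loam plus sand received a directed soil spray. Postemergence: seedlings at one to two leaves, 2 to 10 cm high, were oversprayed. Each compound was formulated in a non-phytotoxic solvent mix that included a surfactant.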

kochia (Bassia scoparia) [2] = experiment: Test A preemergence, kochia; conditions: Preemergence; for Plant response rating, Kochia: 0 to 100 scale (0 no effect, 100 complete control); for Kochia plant response rating: 500 g ai/ha, visual injury on 0 to 100 scale (0 no effect, 100 complete control), approximately 10 days
Method in brief: as §1

[3] = tested on: ragweed (common ragweed, Ambrosia artemisiifolia); experiment: Test A preemergence, ragweed; conditions: Preemergence; for Plant response rating, Ragweed: 0 to 100 scale (0 no effect, 100 complete control); for Ragweed plant response rating: 500 g ai/ha, visual injury on 0 to 100 scale (0 no effect, 100 complete control), approximately 10 days
Method in brief: as §1

[4] = tested on: Ryegrass, Italian (Italian ryegrass, Lolium multiflorum); experiment: Test A preemergence, Ryegrass, Italian; conditions: Preemergence; for Plant response rating, Ryegrass, Italian: 0 to 100 scale (0 no effect, 100 complete control); for Ryegrass, Italian plant response rating: 500 g ai/ha, visual injury on 0 to 100 scale (0 no effect, 100 complete control), approximately 10 days
Method in brief: as §1

[5] = tested on: Foxtail, Giant (giant foxtail, Setaria faberi); experiment: Test A preemergence, Foxtail, Giant; conditions: Preemergence; for Plant response rating, Foxtail, Giant: 0 to 100 scale (0 no effect, 100 complete control); for Foxtail, Giant plant response rating: 500 g ai/ha, visual injury on 0 to 100 scale (0 no effect, 100 complete control), approximately 10 days
Method in brief: as §1

[6] = tested on: pigweed (Amaranthus retroflexus); experiment: Test A preemergence, pigweed; conditions: for Plant response rating, Pigweed: 0 to 100 scale (0 no effect, 100 complete control); for Pigweed plant response rating: 500 g ai/ha, visual injury on 0 to 100 scale (0 no effect, 100 complete control), approximately 10 days
Method in brief: as §1

[7] = tested on: barnyardgrass (Echinochloa crus-galli); experiment: Test A postemergence, barnyardgrass; conditions: Postemergence, 0 to 100 scale (0 no effect, 100 complete control)
Method in brief: as §1

kochia (Bassia scoparia) [8] = experiment: Test A postemergence, kochia; conditions: Postemergence, 0 to 100 scale (0 no effect, 100 complete control)
Method in brief: as §1

[9] = tested on: ragweed (common ragweed, Ambrosia artemisiifolia); experiment: Test A postemergence, ragweed; conditions: Postemergence, 0 to 100 scale (0 no effect, 100 complete control)
Method in brief: as §1

[10] = tested on: Ryegrass, Italian (Italian ryegrass, Lolium multiflorum); experiment: Test A postemergence, Ryegrass, Italian; conditions: Postemergence, 0 to 100 scale (0 no effect, 100 complete control)
Method in brief: as §1

[11] = tested on: Foxtail, Giant (giant foxtail, Setaria faberi); experiment: Test A postemergence, Foxtail, Giant; conditions: Postemergence, 0 to 100 scale (0 no effect, 100 complete control)
Method in brief: as §1

[12] = tested on: pigweed (Amaranthus retroflexus); experiment: Test A postemergence, pigweed; conditions: Postemergence, 0 to 100 scale (0 no effect, 100 complete control)
Method in brief: as §1

[13] = tested on: wheat (Triticum aestivum); experiment: Test A postemergence, wheat; conditions: Postemergence, 0 to 100 scale (0 no effect, 100 complete control)
Method in brief: as §1

corn (Zea mays) = experiment: Test A postemergence, corn; conditions: Postemergence, 0 to 100 scale (0 no effect, 100 complete control)
Method in brief: as §1

[14] = tested on: blackgrass (Alopecurus myosuroides); experiment: Test A postemergence, blackgrass; conditions: Postemergence, 0 to 100 scale (0 no effect, 100 complete control)
Method in brief: as §1

[15] = tested on: galium (catchweed bedstraw, Galium aparine); experiment: Test A postemergence, galium; conditions: Postemergence, 0 to 100 scale (0 no effect, 100 complete control)
Method in brief: as §1

[16] = 1000 g ai/ha, visual injury, approx. 10 days
[17] = 125 g ai/ha, visual injury, approx. 10 days
[18] = 500 g ai/ha, visual injury approx. 10 days

Row | Compound | Plant response rating, Barnyardgrass [1, 17] | Barnyardgrass plant response rating [1] | Plant response rating, Kochia (kochia (Bassia scoparia) [2]; [17]) | Kochia plant response rating (kochia (Bassia scoparia) [2]) | Plant response rating, Ragweed [3, 17] | Ragweed plant response rating [3] | Plant response rating, Ryegrass, Italian [4, 17] | Ryegrass, Italian plant response rating [4] | Plant response rating, Foxtail, Giant [5, 17] | Foxtail, Giant plant response rating [5] | Plant response rating, Pigweed [6, 17] | Pigweed plant response rating [6] | Plant response rating, Barnyardgrass ([7]; 125 g ai/ha) | Plant response rating, Barnyardgrass [7, 18] | Plant response rating, Kochia (kochia (Bassia scoparia) [8]; 125 g ai/ha) | Plant response rating, Kochia (kochia (Bassia scoparia) [8]; [18]) | Plant response rating, Ragweed ([9]; 125 g ai/ha) | Plant response rating, Ragweed [9, 18] | Plant response rating, Ryegrass, Italian ([10]; 125 g ai/ha) | Plant response rating, Ryegrass, Italian [10, 18] | further results
1 | Cc1ccc(C(=O)N2CCC(C(C)(C)C)CC2)cc1NS(=O)(=O)C(F)(F)F [Compound 262] |  |  |  |  |  |  |  |  |  |  |  |  |  |  |  |  |  |  |  |  | Plant response rating, Barnyardgrass ([1]; 1000 g ai/ha): 20; Plant response rating, Kochia (kochia (Bassia scoparia) [2]; 1000 g ai/ha): 0; Plant response rating, Ragweed ([3]; 1000 g ai/ha): 0; Plant response rating, Ryegrass, Italian ([4]; 1000 g ai/ha): 20; Plant response rating, Foxtail, Giant ([5]; 1000 g ai/ha): 70; Plant response rating, Pigweed ([6]; 1000 g ai/ha): 0; Plant response rating, Barnyardgrass [7, 16]: 0; Plant response rating, Kochia (kochia (Bassia scoparia) [8]; [16]): 0; Plant response rating, Ragweed [9, 16]: 0; Plant response rating, Ryegrass, Italian [10, 16]: 20; Plant response rating, Foxtail, Giant [11, 16]: 0; Plant response rating, Pigweed [12, 16]: 20; Plant response rating, Wheat [13, 16]: 0; Plant response rating, Corn (corn (Zea mays); [16]): 0; Plant response rating, Blackgrass [14, 16]: 20; Plant response rating, Galium [15, 16]: 40
2 | Cc1cc(C)c(C(=O)N2CCC(C)CC2)cc1NS(=O)(=O)C(F)(F)F [Compound 264] |  |  |  |  |  |  |  |  |  |  |  |  |  |  |  |  |  |  |  |  | Plant response rating, Barnyardgrass ([1]; 1000 g ai/ha): 100; Plant response rating, Kochia (kochia (Bassia scoparia) [2]; 1000 g ai/ha): 70; Plant response rating, Ragweed ([3]; 1000 g ai/ha): 90; Plant response rating, Ryegrass, Italian ([4]; 1000 g ai/ha): 100; Plant response rating, Foxtail, Giant ([5]; 1000 g ai/ha): 100; Plant response rating, Pigweed ([6]; 1000 g ai/ha): 80; Plant response rating, Barnyardgrass [7, 16]: 50; Plant response rating, Kochia (kochia (Bassia scoparia) [8]; [16]): 20; Plant response rating, Ragweed [9, 16]: 60; Plant response rating, Ryegrass, Italian [10, 16]: 50; Plant response rating, Foxtail, Giant [11, 16]: 40; Plant response rating, Pigweed [12, 16]: 60; Plant response rating, Wheat [13, 16]: 70; Plant response rating, Corn (corn (Zea mays); [16]): 20; Plant response rating, Blackgrass [14, 16]: 60; Plant response rating, Galium [15, 16]: 70
3 | Cc1cc(C)c(N2CCC3(CCCC3)C2=O)cc1NS(=O)(=O)C(F)(F)F [Compound 270] | 90 | 90 | 0 | 0 | 0 | 80 | 100 | 100 | 100 | 100 | 70 | 100 | 0 | 70 | 10 | 50 | 30 | 60 | 0 | 70 | Plant response rating, Foxtail, Giant ([11]; 125 g ai/ha): 0; Plant response rating, Foxtail, Giant [11, 18]: 20; Plant response rating, Pigweed ([12]; 125 g ai/ha): 60; Plant response rating, Pigweed [12, 18]: 90; Plant response rating, Wheat ([13]; 125 g ai/ha): 40; Plant response rating, Wheat [13, 18]: 70; Plant response rating, Corn (corn (Zea mays); 125 g ai/ha): 0; Plant response rating, Corn (corn (Zea mays); [18]): 50; Plant response rating, Blackgrass ([14]; 125 g ai/ha): 20; Plant response rating, Blackgrass [14, 18]: 70; Plant response rating, Galium ([15]; 125 g ai/ha): 80; Plant response rating, Galium [15, 18]: 90
4 | Cc1cc(C)c(N(S(=O)(=O)C(F)(F)F)S(=O)(=O)C(F)(F)F)cc1C(=O)N1CCCOCC1 [Compound 276] | 70 | 100 | 0 | 0 | 40 | 70 | 30 | 80 | 100 | 100 | 80 | 100 | 60 | 90 | 20 | 60 | 50 | 80 | 0 | 10 | Plant response rating, Foxtail, Giant ([11]; 125 g ai/ha): 10; Plant response rating, Foxtail, Giant [11, 18]: 90; Plant response rating, Pigweed ([12]; 125 g ai/ha): 60; Plant response rating, Pigweed [12, 18]: 80; Plant response rating, Wheat ([13]; 125 g ai/ha): 0; Plant response rating, Wheat [13, 18]: 20; Plant response rating, Corn (corn (Zea mays); 125 g ai/ha): 0; Plant response rating, Corn (corn (Zea mays); [18]): 20; Plant response rating, Blackgrass ([14]; 125 g ai/ha): 0; Plant response rating, Blackgrass [14, 18]: 0; Plant response rating, Galium ([15]; 125 g ai/ha): 80; Plant response rating, Galium [15, 18]: 90
5 | Cc1cc(C)c(C2=NOC3(CCCCCC3)C2)cc1NS(=O)(=O)C(F)(F)F [Compound 277] | 100 | 100 | 90 | 100 | 10 | 80 | 100 | 100 | 100 | 100 | 60 | 100 | 20 | 90 | 10 | 40 | 20 | 60 | 0 | 60 | Plant response rating, Foxtail, Giant ([11]; 125 g ai/ha): 30; Plant response rating, Foxtail, Giant [11, 18]: 90; Plant response rating, Pigweed ([12]; 125 g ai/ha): 30; Plant response rating, Pigweed [12, 18]: 70; Plant response rating, Wheat ([13]; 125 g ai/ha): 0; Plant response rating, Wheat [13, 18]: 70; Plant response rating, Corn (corn (Zea mays); 125 g ai/ha): 10; Plant response rating, Corn (corn (Zea mays); [18]): 70; Plant response rating, Blackgrass ([14]; 125 g ai/ha): 10; Plant response rating, Blackgrass [14, 18]: 60; Plant response rating, Galium ([15]; 125 g ai/ha): 100; Plant response rating, Galium [15, 18]: 100
6 | Cc1cc(C)c(N2CC3(CCCCC3)OC2=O)cc1NS(=O)(=O)C(F)(F)F [Compound 279] | 100 | 100 | 80 | 90 | 100 | 100 | 90 | 100 | 100 | 100 | 90 | 100 | 20 | 80 | 40 | 50 | 80 | 90 | 0 | 60 | Plant response rating, Foxtail, Giant ([11]; 125 g ai/ha): 10; Plant response rating, Foxtail, Giant [11, 18]: 30; Plant response rating, Pigweed ([12]; 125 g ai/ha): 50; Plant response rating, Pigweed [12, 18]: 80; Plant response rating, Wheat ([13]; 125 g ai/ha): 0; Plant response rating, Wheat [13, 18]: 70; Plant response rating, Corn (corn (Zea mays); 125 g ai/ha): 20; Plant response rating, Corn (corn (Zea mays); [18]): 20; Plant response rating, Blackgrass ([14]; 125 g ai/ha): 0; Plant response rating, Blackgrass [14, 18]: 20; Plant response rating, Galium ([15]; 125 g ai/ha): 90; Plant response rating, Galium [15, 18]: 90
7 | Cc1cc(C)c(N(S(=O)(=O)C(F)(F)F)S(=O)(=O)C(F)(F)F)cc1N1CCC2(CCCC2)C1=O [Compound 280] | 90 | 90 | 40 | 70 | 30 | 70 | 100 | 100 | 100 | 100 | 70 | 100 | 20 | 90 | 20 | 50 | 30 | 50 | 40 | 70 | Plant response rating, Foxtail, Giant ([11]; 125 g ai/ha): 0; Plant response rating, Foxtail, Giant [11, 18]: 20; Plant response rating, Pigweed ([12]; 125 g ai/ha): 60; Plant response rating, Pigweed [12, 18]: 90; Plant response rating, Wheat ([13]; 125 g ai/ha): 40; Plant response rating, Wheat [13, 18]: 60; Plant response rating, Corn (corn (Zea mays); 125 g ai/ha): 0; Plant response rating, Corn (corn (Zea mays); [18]): 10; Plant response rating, Blackgrass ([14]; 125 g ai/ha): 0; Plant response rating, Blackgrass [14, 18]: 0; Plant response rating, Galium ([15]; 125 g ai/ha): 80; Plant response rating, Galium [15, 18]: 90
